Test results published in ChEMBL document CHEMBL1150932, “Norepinephrine-augmenting lipolytic effectors from Astilbe thunbergii rhizomes” (J Nat Prod, 1998).
Active and inactive are the calls of the source. No cut-off for these calls is given here.

Assays:
[1] = Stimulation of ACTH-induced lipolysis in Wistar rat fat cells assessed as free fatty acid release per mL of packed fat cells at 1000 ug after 1 hr relative to ACTH; type: functional
Rattus norvegicus [2] = organism: Rattus norvegicus; test: Induction of lipolysis in Wistar rat fat cells assessed as free fatty acid release per mL of packed fat cells after 1 hr relative to norepinephrine; type: functional, cell-based
[3] = Stimulation of ACTH-induced lipolysis in Wistar rat fat cells assessed as free fatty acid release per mL of packed fat cells at 100 ug after 1 hr relative to ACTH; type: functional
[4] = Effect on lipolysis in cell-free system consisting sonicated lipid droplets assessed as free fatty acid release at 1000 ug in presence of hormone-sensitive lipase relative to untreated control; type: physicochemical
Rattus norvegicus [5] = organism: Rattus norvegicus; test: Enhancement of norepinephrine-induced lipolysis in Wistar rat fat cells assessed as free fatty acid release per mL of packed fat cells after 1 hr relative to norepinephrine; type: functional, cell-based
Rattus norvegicus [6] = organism: Rattus norvegicus; test: Enhancement of norepinephrine-induced lipolysis in cell-free system consisting endogenous lipid droplets from Wistar rat fat cells assessed as free fatty acid release per mL of packed fat cells after 1 hr in presence of hormone-sensitive lipase; type: functional
[7] = Enhancement of norepinephrine-induced lipolysis in cell-free system consisting sonicated lipid droplets assessed as free fatty acid release at 1000 ug in presence of hormone-sensitive lipase relative to untreated control; type: physicochemical
Rattus norvegicus [8] = organism: Rattus norvegicus; test: Inhibition of insulin-induced lipogenesis from [U-14C]glucose in Wistar rat fat cells after 1 hr by liquid scintillation counting; type: functional, cell-based

SMILES	Activity [1]	Activity (Rattus norvegicus [2])	Activity [3]	Activity [4]	Activity (Rattus norvegicus [5])	Activity (Rattus norvegicus [6])	Activity [7]	Activity (Rattus norvegicus [8])
C[C@@H]1O[C@@H](O[C@H]2C(=O)c3c(O)cc(O)cc3O[C@@H]2c2ccc(O)c(O)c2)[C@H](O)[C@H](O)[C@H]1O [ASTILBIN]	278.4%	inactive	195.6%	95.7%	Active	Active	98.5%	Active
COc1c(O)cc2c(c1O)[C@@H]1O[C@H](CO)[C@@H](O)[C@H](O)[C@H]1OC2=O [BERGENIN]	356.9%	inactive	105.9%	98.6%	Active	Active	96.2%	Active
C[C@@H]1O[C@@H](Oc2coc3cc(O)cc(O)c3c2=O)[C@H](O)[C@H](O)[C@H]1O [EUCRYPHIN]	332.8%	inactive	79.4%	98.5%	Active	Active	100%	Active
